Measurements published in the NIST ThermoML archive (doi:10.1016/j.fluid.2017.06.018).
“And” between values parts separate entries of the source, which are not always exact repeats. Equal entries are not always repeated. ± gives the expanded uncertainty stated by the source.

Experiments:
[1] = refractive index (Na D-line) (dimensionless); settings: 100 kPa, Liquid, Standard Abbe refractometry
[2] = 100 kPa, Liquid; for viscosity: Falling or rolling sphere viscometry; for mass density: Vibrating tube method
[3] = xn = mol fraction of the nth substance listed; settings: 100 kPa, Liquid, x1 = 1; for viscosity: Falling or rolling sphere viscometry; for mass density: Vibrating tube method
[4] = refractive index (Na D-line) (dimensionless); xn = mol fraction of the nth substance listed; settings: 100 kPa, Liquid, Standard Abbe refractometry, x1 = 1

Row | SMILES | refractive index ([1]; 298.15 K) | refractive index ([1]; 303.15 K) | refractive index ([1]; 308.15 K) | viscosity ([2]; 298.15 K) [mPa·s] | mass density ([2]; 298.15 K) [kg/m3] | viscosity ([2]; 303.15 K) [mPa·s] | mass density ([2]; 303.15 K) [kg/m3] | viscosity ([2]; 308.15 K) | mass density ([2]; 308.15 K) [kg/m3] | viscosity ([3]; 298.15 K) [mPa·s] | mass density ([3]; 298.15 K) [kg/m3] | viscosity ([3]; 303.15 K) [mPa·s] | mass density ([3]; 303.15 K) [kg/m3] | viscosity ([3]; 308.15 K) [mPa·s] | mass density ([3]; 308.15 K) [kg/m3] | refractive index ([4]; 298.15 K) | refractive index ([4]; 303.15 K) | refractive index ([4]; 308.15 K)
1 | NCCO [2-aminoethan-1-ol] | 1.4535 ± 0.0021 | 1.4519 ± 0.0021 | 1.4505 ± 0.0021 | 18.72 ± 0.44 | 1012.4 ± 2.2 | 15.15 ± 0.36 | 1008.4 ± 2.1 | 11.9 ± 0.28 mPa·s and 11.96 ± 0.28 mPa·s | 1004.5 ± 2.1 |  |  |  |  |  |  |  |  | 
2 | NCCO [2-aminoethan-1-ol] + NCCNCCN |  |  |  |  |  |  |  |  |  | 18.72 ± 0.44 | 1012.4 ± 2.2 | 15.15 ± 0.36 | 1008.4 ± 2.1 | 11.9 ± 0.28 | 1004.5 ± 2.1 | 1.4535 ± 0.0021 | 1.4519 ± 0.0021 | 1.4505 ± 0.0021
3 | NCCO [2-aminoethan-1-ol] + NCCNCCO |  |  |  |  |  |  |  |  |  | 18.72 ± 0.44 | 1012.4 ± 2.2 | 15.15 ± 0.36 | 1008.4 ± 2.1 | 11.96 ± 0.28 | 1004.5 ± 2.1 | 1.4535 ± 0.0021 | 1.4519 ± 0.0021 | 1.4505 ± 0.0021

Further lines, results first:

Row | refractive index ([1]; 298.15 K) | refractive index ([1]; 303.15 K) | refractive index ([1]; 308.15 K) | viscosity ([2]; 298.15 K) [mPa·s] | mass density ([2]; 298.15 K) [kg/m3] | viscosity ([2]; 303.15 K) [mPa·s] | mass density ([2]; 303.15 K) [kg/m3] | viscosity ([2]; 308.15 K) | mass density ([2]; 308.15 K) [kg/m3] | viscosity ([3]; 298.15 K) [mPa·s] | mass density ([3]; 298.15 K) [kg/m3] | viscosity ([3]; 303.15 K) [mPa·s] | mass density ([3]; 303.15 K) [kg/m3] | viscosity ([3]; 308.15 K) [mPa·s] | mass density ([3]; 308.15 K) [kg/m3] | refractive index ([4]; 298.15 K) | refractive index ([4]; 303.15 K) | refractive index ([4]; 308.15 K) | SMILES
4 | 1.4843 ± 0.002 | 1.4827 ± 0.002 | 1.4811 ± 0.002 | 98.62 ± 2.9 | 1025.8 ± 2 | 70.57 ± 1.6 | 1021.3 ± 2 | 53.11 ± 1.1 mPa·s | 1016.3 ± 2 |  |  |  |  |  |  |  |  |  | NCCNCCO [N-(2-aminoethyl)ethanolamine]
5 | 1.4822 ± 0.0021 | 1.4808 ± 0.0021 | 1.4793 ± 0.0021 | 5.63 ± 0.13 | 945.8 ± 2.1 | 4.5 ± 0.11 | 942.1 ± 2.1 | 3.85 ± 0.09 mPa·s | 937.8 ± 2.1 |  |  |  |  |  |  |  |  |  | NCCNCCN [di(2-aminoethyl)amine]
